Reference: patent US20220370385A1, “COMPOSITIONS FOR USE IN INHIBITING SRC KINASE AND TREATING AND PREVENTING ASSOCIATED DISORDERS” (Enzene Biosciences Ltd., priority 2019, published 2022)

Tested on: MDA-MB-468 cells
Assay: MDA-MB-468 cell viability, CellTiter-Glo, 24 hrs
Format: cell-based, human
Conditions: 24 hrs incubation
Description: MDA-MB-468 cells, isolated from a pleural effusion of a patient with metastatic adenocarcinoma of the breast, is a triple negative breast cancer (TNBC) cell line. The IC 50 value of E05 or lapatinib (Sigma) or the structural analogues of E05 were tested in this cell line.
Briefly, MDA-MB-468 cells (ATCC #HTB-32) were seeded with a density of 5,000 cells per well in a 96 well white plate (Costar Cat #3917) in DMEM media supplemented with 10% FBS (assay medium). The plates were incubated at 37° C., 5% CO2 for 24 hr. E05 and analogues were diluted in the assay medium and added to the respective wells of the assay plate. The plates were further incubated at 37° C., 5% CO2 for 24 hrs. After the incubation, the cell viability was assessed using CellTiter-Glo® and the plates were read for luminescence using Cytation 5 (Biotek). The relative luminescence unit (RLU) obtained was plotted against the concentration and EC50 values were estimated using Graphpad Prism 5 software (FIG. 15 and Table 2).

Structure (SMILES) | Activity (EC50) | EC50 (Homo sapiens) [µM]
O=C(O)CCc1ccc(O)cc1 [E05_D, 3-(4-Hydroxyphenyl)-propionic acid (Phloretic acid)] | Inactive | 
Oc1ccccc1O [E05_E, 1,2-Dihydroxybenzene (Catechol)] |  | 103
COc1ccc(C(=O)O)cc1O [E05_F, 3-Hydroxy-4-methoxy-benzoic acid (Isovamillic acid)] | Inactive | 
COc1cc(C(=O)O)ccc1O [E05_G, 4-Hydroxy-3-methoxy-benzoic acid (Vanillic acid)] | Inactive | 
O=C(O)c1ccc(O)cc1O [E05_H, 2,4-Dihydroxybenzoic acid] | Inactive | 
